Calls of active or inactive are those of the source.
Assays:
[1] = cells; type: functional, cell-based
[2] = cells; type: functional, cell-based; remark: listed apart in the source
[3] = biological target: Trypsin (Sus scrofa, UniProt P00761); test: porcine trypsin inhibitors, dose response, selectivity assay for Rce1 protease inhibitor project, biochemical, quenched peptide fluorescence, cherry-pick (AID 488789)
[4] = biological target: T1, CAAX prenyl protease 2 (Saccharomyces cerevisiae S288c, UniProt Q03530); type: biochemical
T1 sequence (Q03530 whole entry): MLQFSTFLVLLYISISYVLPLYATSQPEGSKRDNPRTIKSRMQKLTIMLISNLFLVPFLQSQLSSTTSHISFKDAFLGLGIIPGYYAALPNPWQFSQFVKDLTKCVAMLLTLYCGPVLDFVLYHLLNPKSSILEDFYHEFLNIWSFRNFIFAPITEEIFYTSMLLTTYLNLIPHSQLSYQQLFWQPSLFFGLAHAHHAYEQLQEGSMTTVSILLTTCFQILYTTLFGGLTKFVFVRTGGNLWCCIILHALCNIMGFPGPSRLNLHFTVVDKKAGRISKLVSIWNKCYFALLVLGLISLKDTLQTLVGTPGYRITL

[5] = biological target: T2, Replicative DNA helicase DnaB (Mycobacterium tuberculosis, UniProt P9WMR3); test: DnaB intein splicing inhibitors, dose response, biochemical, cell-free fluorescence (AID 449749); type: functional
T2 sequence (P9WMR3 whole entry): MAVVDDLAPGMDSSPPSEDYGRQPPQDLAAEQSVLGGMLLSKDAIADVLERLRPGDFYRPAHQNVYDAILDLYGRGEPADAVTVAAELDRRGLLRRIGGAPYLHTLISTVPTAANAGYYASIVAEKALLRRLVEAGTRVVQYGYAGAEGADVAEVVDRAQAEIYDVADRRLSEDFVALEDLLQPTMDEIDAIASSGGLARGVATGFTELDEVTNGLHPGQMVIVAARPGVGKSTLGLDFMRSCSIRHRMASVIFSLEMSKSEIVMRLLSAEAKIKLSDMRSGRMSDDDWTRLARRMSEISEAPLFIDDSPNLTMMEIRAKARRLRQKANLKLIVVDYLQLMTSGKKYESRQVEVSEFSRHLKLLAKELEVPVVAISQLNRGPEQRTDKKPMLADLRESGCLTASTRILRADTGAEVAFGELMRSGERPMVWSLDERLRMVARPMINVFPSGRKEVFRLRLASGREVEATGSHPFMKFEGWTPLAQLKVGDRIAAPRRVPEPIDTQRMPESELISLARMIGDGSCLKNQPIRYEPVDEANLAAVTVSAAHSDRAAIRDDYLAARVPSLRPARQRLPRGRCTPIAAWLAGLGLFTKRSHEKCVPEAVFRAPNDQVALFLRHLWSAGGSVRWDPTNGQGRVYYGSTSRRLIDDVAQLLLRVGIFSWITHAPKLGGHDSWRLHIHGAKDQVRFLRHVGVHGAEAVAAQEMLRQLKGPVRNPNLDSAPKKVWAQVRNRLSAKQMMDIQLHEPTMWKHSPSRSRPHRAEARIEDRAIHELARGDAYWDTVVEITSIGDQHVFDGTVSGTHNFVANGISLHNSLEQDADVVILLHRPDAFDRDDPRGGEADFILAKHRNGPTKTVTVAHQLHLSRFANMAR

[6] = biological target: T3, Protein RecA (Mycobacterium tuberculosis, UniProt P9WHJ3); test: Fluorescence Cell-Free Homogeneous Dose Retest to Identify Inhibitors of RecA-Intein Splicing Activity. [Related pubchem assays (depositor defined):AID2097, AID2223, AID489010, AID492950]; type: functional
T3 sequence (P9WHJ3 whole entry): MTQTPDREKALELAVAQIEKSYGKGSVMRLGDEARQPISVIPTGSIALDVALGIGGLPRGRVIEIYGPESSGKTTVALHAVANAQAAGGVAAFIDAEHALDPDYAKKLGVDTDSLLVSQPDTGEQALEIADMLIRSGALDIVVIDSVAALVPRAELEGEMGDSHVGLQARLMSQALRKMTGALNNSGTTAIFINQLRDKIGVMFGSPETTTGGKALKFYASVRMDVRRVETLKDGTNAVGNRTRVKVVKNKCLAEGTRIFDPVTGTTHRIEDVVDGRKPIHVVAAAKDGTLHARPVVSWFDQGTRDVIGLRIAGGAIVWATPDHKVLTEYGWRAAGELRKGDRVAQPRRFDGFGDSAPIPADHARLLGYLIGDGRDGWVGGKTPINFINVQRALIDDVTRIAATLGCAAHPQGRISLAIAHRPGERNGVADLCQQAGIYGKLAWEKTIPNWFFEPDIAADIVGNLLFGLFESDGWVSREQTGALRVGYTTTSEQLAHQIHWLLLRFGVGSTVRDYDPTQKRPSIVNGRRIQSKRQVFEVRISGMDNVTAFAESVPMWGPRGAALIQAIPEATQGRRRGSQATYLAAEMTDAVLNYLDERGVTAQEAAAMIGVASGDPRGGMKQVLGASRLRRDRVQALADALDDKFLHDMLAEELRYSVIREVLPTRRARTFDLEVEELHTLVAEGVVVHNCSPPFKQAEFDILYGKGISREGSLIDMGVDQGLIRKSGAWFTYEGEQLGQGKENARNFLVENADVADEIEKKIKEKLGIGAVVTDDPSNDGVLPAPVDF

[7] = biological target: T4, CAAX prenyl protease 2 (Homo sapiens, UniProt Q9Y256); test: human Rce1 protease inhibitors, dose response, biochemical, yeast membranes, quenched-peptide fluorescence, cherry-pick (AID 588849)
T4 sequence (Q9Y256 whole entry): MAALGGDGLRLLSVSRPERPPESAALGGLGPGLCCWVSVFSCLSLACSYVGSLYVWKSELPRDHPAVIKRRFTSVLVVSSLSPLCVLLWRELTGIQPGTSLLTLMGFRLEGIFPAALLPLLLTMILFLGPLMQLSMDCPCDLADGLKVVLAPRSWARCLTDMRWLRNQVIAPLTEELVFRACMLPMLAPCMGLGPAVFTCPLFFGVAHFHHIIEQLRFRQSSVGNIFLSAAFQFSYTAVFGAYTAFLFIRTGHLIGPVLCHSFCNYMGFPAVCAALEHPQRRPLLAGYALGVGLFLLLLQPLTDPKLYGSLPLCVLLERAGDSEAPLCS

[8] = Shn3 3'UTR reporter inhibitors, dose response, cell-based, Clone20 osteoblasts, firefly luciferase, cherry-picked (AID 624132); type: functional;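 further: firefly luciferase luminescence from reporter carrying the Shn3 3'UTR in osteoblasts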
[9] = HepG2 cell cytotoxicity, dose response, cytotoxicity control for Shn3 inhibitor project, CellTiter-Glo, cherry-picked (AID 624134); type: functional, cell-based
[10] = control 3'UTR Renilla luciferase suppression, dose response, counter-screen for Shn3 inhibitor project, cell-based, Clone20-Shn3RL, cherry-picked (AID 624133); type: functional
[11] = biological target: T5, Tyrosine-protein phosphatase non-receptor type 7 (Homo sapiens, UniProt P35236); type: functional
T5 sequence (P35236 whole entry): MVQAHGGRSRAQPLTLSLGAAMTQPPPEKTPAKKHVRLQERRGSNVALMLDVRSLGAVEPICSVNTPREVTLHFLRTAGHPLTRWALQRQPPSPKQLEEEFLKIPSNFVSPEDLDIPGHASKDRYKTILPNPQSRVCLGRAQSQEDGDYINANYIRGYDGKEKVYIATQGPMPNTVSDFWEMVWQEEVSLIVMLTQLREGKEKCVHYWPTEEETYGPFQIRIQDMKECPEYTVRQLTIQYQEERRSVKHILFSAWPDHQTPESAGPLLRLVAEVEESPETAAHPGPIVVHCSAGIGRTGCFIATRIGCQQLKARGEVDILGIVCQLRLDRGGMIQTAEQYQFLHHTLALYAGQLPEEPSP

[12] = biological target: Glyceraldehyde-3-phosphate dehydrogenase (Homo sapiens, UniProt P04406)
[13] = biological target: T6, Dual specificity protein phosphatase 6 (Rattus norvegicus, UniProt Q64346)
T6 sequence (Q64346 whole entry): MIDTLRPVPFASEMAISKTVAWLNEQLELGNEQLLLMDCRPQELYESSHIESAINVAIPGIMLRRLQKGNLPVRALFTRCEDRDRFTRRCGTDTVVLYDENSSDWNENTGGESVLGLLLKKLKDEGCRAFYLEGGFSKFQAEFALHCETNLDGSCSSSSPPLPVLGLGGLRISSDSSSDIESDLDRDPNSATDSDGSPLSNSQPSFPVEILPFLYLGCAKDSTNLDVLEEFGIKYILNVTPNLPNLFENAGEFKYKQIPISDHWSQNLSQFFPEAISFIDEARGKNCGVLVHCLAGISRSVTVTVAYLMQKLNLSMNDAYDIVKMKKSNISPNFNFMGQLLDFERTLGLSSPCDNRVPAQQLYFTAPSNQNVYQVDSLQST

[14] = biological target: T6, Dual specificity protein phosphatase 6; type: functional
[15] = biological target: T7, Ubiquitin-conjugating enzyme E2 N (Homo sapiens, UniProt P61088); type: functional;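 further: Dose-response confirmation in a TR-FRET assay detecting UBC13-driven polyubiquitin chain formation, inhibition measured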
T7 sequence (P61088 whole entry): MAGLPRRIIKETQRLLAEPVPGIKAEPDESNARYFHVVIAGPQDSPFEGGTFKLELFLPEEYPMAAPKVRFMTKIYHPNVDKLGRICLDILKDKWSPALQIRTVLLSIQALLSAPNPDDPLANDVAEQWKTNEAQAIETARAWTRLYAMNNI

[16] = biological target: Delta-type opioid receptor (Homo sapiens, UniProt P41143); test: Counterscreen for agonists of heterodimerization of the mu 1 (OPRM1) and delta 1 (OPRD1) opioid receptors: Luminescence-based cell-based high throughput dose response assay to identify agonists of OPRD1 homodimerization. [Related pubchem assays (depositor defined):AID504326, AID504355, AID504692, AID504904, AID504905]; type: functional
[17] = biological target: Mu-type opioid receptor (Homo sapiens, UniProt P35372); test: Counterscreen for agonists of heterodimerization of the mu 1 (OPRM1) and delta 1 (OPRD1) opioid receptors: Luminescence-based cell-based high throughput dose response assay to identify agonists of OPRM1 homodimerization.; type: functional;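 further: U2OS cells expressing OPRM1 and beta-arrestin as split beta-galactosidase partners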
[18] = biological target: 5-hydroxytryptamine receptor 5A (Homo sapiens, UniProt P47898); test: Counterscreen for agonists of OPRM1-OPRD1 heterodimerization: luminescence-based cell-based high throughput dose response assay to identify agonists of 5-hydroxytryptamine (serotonin) 5A receptor (HTR5A). [Related pubchem assays (depositor defined):AID504326, AID504355, AID504692, AID504904, AID504905]; type: functional
[19] = biological target: T8, Short transient receptor potential channel 4 (Mus musculus, UniProt Q9QUQ5); test: mouse TRPC4 channel activators, dose response, cell-based, HEK293 TRPC4/mu-opioid, Fluo-4 calcium (AID 434937); type: functional
T8 sequence (Q9QUQ5 whole entry): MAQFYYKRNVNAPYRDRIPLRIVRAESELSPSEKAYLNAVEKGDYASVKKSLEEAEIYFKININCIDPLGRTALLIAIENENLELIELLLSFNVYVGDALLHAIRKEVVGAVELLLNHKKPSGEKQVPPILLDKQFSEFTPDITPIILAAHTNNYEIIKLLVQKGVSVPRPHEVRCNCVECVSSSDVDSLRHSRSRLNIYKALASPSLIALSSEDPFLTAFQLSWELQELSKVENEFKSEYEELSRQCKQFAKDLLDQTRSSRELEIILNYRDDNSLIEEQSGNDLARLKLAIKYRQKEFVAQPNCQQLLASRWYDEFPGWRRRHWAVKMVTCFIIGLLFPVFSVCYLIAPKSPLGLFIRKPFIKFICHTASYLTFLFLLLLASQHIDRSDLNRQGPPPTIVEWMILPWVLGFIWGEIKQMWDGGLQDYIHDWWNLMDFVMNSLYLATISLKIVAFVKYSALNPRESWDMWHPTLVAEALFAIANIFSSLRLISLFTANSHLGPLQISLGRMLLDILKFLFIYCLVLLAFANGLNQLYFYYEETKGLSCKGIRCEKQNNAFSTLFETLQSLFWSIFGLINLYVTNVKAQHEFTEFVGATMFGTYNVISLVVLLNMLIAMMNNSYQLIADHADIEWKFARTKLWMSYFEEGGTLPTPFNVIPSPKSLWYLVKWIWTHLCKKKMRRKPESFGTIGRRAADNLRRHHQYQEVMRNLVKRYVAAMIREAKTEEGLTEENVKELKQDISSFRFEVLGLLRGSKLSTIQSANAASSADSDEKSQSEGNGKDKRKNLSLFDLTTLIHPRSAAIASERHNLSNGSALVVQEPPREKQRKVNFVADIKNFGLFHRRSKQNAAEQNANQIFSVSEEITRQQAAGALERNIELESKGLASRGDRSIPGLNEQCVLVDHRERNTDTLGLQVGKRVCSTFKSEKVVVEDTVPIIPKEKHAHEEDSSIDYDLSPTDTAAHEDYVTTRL

Sequence of Glyceraldehyde-3-phosphate dehydrogenase (P04406 whole entry): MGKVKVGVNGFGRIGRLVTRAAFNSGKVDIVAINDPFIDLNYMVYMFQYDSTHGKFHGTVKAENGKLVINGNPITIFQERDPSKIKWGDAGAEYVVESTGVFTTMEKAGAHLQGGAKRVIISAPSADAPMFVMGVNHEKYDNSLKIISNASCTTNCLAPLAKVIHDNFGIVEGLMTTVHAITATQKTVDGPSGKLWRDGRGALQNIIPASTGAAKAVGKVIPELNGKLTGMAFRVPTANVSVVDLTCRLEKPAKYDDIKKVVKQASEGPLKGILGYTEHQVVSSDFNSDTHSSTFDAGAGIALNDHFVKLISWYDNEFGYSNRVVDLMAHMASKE
Sequence of 5-hydroxytryptamine receptor 5A (P47898 whole entry): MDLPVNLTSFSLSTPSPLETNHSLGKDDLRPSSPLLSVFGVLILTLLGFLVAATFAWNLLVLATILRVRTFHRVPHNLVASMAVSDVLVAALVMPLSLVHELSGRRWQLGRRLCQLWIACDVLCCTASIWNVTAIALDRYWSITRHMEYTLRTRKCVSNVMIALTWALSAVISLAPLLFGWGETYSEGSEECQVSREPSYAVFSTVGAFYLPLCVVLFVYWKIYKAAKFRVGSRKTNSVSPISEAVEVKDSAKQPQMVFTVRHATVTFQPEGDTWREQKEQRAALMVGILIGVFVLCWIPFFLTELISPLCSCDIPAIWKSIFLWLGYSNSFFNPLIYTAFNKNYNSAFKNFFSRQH
Sequence of Delta-type opioid receptor (P41143 whole entry): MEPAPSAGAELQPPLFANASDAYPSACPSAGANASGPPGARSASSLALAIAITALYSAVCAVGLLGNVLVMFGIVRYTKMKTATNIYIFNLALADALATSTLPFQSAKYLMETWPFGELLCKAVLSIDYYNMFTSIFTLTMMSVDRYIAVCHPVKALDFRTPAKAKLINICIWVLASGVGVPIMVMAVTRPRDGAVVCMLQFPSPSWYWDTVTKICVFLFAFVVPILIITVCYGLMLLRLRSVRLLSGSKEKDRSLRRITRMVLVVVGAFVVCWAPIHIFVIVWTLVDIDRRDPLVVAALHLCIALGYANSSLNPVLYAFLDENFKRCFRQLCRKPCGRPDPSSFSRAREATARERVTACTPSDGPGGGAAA
Sequence of Mu-type opioid receptor (P35372 whole entry): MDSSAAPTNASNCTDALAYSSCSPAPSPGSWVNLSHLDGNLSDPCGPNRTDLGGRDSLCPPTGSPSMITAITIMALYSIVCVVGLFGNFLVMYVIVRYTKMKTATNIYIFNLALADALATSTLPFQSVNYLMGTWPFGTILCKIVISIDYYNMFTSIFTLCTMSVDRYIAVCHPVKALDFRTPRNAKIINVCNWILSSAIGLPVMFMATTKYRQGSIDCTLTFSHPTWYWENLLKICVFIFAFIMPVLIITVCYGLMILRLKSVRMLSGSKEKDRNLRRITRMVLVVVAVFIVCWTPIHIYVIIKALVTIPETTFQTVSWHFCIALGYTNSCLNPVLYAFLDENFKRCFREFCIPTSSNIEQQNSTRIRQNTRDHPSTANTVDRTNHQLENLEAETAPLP
Sequence of Trypsin (P00761 whole entry): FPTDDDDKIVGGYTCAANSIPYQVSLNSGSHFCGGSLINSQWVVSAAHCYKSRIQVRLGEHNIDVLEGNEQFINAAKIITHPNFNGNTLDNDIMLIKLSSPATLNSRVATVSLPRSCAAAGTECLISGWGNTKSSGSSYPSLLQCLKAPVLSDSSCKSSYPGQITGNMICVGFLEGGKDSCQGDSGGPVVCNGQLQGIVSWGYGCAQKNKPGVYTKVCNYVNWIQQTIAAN

In the case of `COc1ccccc1-c1cc(C(F)(F)F)nc(S(=O)(=O)CCCC(=O)NCc2ccc(F)cc2)n1`, the EC50 [1] was > 350 µM (not active), the EC50 [2] was > 350 µM (not active) and the AC50 [3] was 2.3 µM (active). For the same compound, the AC50 [4] was 7.9 µM (active), the AC50 [5] was 5.72 µM (active) and the EC50 [6] was 3.61 µM (active). The AC50 [7] was 10.8 µM (active), the AC50 [8] was 4.43 µM (active) and the AC50 [9] was > 70 µM (inactive). The AC50 [10] was 23.6 µM (active).
With `Cn1c(=O)n(CC(N)=O)c(=O)n(-c2ccccc2)c1=O` the IC50 [11] was > 100 µM (not active), the IC50 [12] was > 100 µM (not active) and the IC50 [13] was > 100 µM (inactive). For the same compound, the IC50 [14] was > 100 µM (inactive).
In the case of `CC[C@@H](C)[C@@H]1CN([C@@H](CN2CCC[C@H]2CN2C(N)=NC[C@H]2C(C)C)C(C)C)C(=N)N1CCc1ccc(Cl)c(Cl)c1`, the IC50 [15] was > 20 µM (inactive), the EC50 [16] was > 92.5 µM (inactive) and the EC50 [17] was 10.9 µM (inactive). For the same compound, the EC50 [18] was > 92.5 µM (inactive).
With `Clc1cccc(Cl)c1COc1nnc(-c2cccs2)c(-c2cccs2)n1` the IC50 [11] was > 100 µM (not active), the IC50 [12] was > 100 µM (not active) and the IC50 [13] was > 100 µM (inactive). For the same compound, the IC50 [14] was > 100 µM (inactive).
For `CN(C)c1ccc(C(CNC(=O)Cc2cccc3ccccc23)N(C)C)cc1` (stereo not given), the EC50 [19] was 0.944 µM (active), the EC50 [16] was > 92.4 µM (inactive) and the EC50 [17] was > 92.4 µM (inactive). For the same compound, the EC50 [18] was > 92.4 µM (inactive).
In the case of `COCCCNc1nc(=O)n(-c2ccc(F)cc2)c(=O)[nH]1`, the IC50 [11] was > 100 µM (not active), the IC50 [12] was > 100 µM (not active) and the IC50 [13] was > 100 µM (inactive). For the same compound, the IC50 [14] was > 100 µM (inactive).

— ChEMBL document CHEMBL1201862, “PubChem BioAssay data set” (2004)
